Measurements from patent US11149277B2, “Method of producing enriched exosomes” (National Health Research Institutes, priority 2016, dated 2021).

System: MCF-7 cells
Assay: NTA and EV protein of CM-P4 fractions of MCF-7 cells
Format: cell-based, human
Conditions: increasing concentrations of GW
From the text: (A) Quantification of EV/exosome release, shown as the number of particles in the CM-P4 fractions released per cell, from MCF-7 and MDA-MB-231 breast cancer cells treated with vehicle or with the indicated concentrations of GW627368X. Particles in the P4 fractions were counted using nanoparticle tracking analysis. Data are means±SEM (n=10). *P≤0.05, ***P≤0.001. (B) Quantification of the total EV protein released from MCF-7 and MDA-MB-231 cells treated with vehicle or with the indicated concentrations of GW627368X. The amounts (m) of protein present per cell in the conditioned medium P4 fractions are presented as means±SEM (n=3). *P≤0.05; (C) Protein levels in the P4 EV/exosome fractions and cell lysates, analyzed by Western blot. Culture media and cell lysates were collected from the same numbers of MCF-7 and MDA-MB-231 cells treated with vehicle or with GW627368X (GW), at the indicated concentrations, for 4 days. The P4 fractions of the culture media, containing EVs, were isolated. […]
We next examined whether blocking EP4-mediated signaling with an EP4 antagonist can elicit EV-mediated removal of CSC proteins (e.g., mesenchymal markers and stem cell markers) in the human breast carcinoma MCF-7 and MDA-MB-231 cell lines. P4 fractions from the conditioned media (CM-P4) of GW-treated MCF-7 and MDA-MB-231 cells were analyzed using NTA (FIG. 21, A). […]

CCOc1c2c(c(OCC)c3ccccc13)C(=O)N(c1ccc(CC(=O)NS(=O)(=O)c3ccccc3)cc1)C2 [GW627368X]
numbers of EVs released: modestly increased
